Measured values published in ChEMBL document CHEMBL2021885, “Triphenylbutanamines: kinesin spindle protein inhibitors with in vivo antitumor activity” (J Med Chem, 2012).
Active and inactive are the calls of the source. No cut-off for these calls is given here.

Key:
[1] = molecular target: T1, Kinesin heavy chain isoform 5A (Homo sapiens) (UniProt Q12840); assay: Inhibition of Kif5a ATPase activity
T1 sequence (whole entry): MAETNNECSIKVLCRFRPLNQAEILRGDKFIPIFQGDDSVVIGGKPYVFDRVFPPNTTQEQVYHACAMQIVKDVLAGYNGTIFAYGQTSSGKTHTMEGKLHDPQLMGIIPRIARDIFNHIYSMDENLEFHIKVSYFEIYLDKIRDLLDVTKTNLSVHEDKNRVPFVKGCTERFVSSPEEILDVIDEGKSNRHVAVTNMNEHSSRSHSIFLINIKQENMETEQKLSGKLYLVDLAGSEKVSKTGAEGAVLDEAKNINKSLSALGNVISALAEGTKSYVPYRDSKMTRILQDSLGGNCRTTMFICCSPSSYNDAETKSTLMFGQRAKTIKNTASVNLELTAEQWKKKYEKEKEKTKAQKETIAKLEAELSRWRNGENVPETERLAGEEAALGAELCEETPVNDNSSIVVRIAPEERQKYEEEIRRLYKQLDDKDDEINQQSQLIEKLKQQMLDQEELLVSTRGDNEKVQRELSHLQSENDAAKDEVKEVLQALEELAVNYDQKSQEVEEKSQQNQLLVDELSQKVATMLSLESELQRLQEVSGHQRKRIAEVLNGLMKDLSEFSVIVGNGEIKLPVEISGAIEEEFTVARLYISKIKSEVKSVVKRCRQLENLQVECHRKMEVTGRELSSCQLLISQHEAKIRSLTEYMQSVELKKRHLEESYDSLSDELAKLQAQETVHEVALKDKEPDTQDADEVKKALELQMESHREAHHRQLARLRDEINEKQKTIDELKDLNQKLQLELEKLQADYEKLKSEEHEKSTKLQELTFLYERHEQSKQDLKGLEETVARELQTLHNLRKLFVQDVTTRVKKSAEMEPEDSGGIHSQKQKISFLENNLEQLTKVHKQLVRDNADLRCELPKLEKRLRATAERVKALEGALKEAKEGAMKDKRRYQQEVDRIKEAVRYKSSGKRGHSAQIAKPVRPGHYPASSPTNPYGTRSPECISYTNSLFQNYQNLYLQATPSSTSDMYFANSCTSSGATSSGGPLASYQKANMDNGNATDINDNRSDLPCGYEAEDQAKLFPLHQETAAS

[2] = molecular target: T2, Kinesin-like protein KIF20A (Homo sapiens) (UniProt O95235); assay: Inhibition of MKLP2 ATPase activity
T2 sequence (whole entry): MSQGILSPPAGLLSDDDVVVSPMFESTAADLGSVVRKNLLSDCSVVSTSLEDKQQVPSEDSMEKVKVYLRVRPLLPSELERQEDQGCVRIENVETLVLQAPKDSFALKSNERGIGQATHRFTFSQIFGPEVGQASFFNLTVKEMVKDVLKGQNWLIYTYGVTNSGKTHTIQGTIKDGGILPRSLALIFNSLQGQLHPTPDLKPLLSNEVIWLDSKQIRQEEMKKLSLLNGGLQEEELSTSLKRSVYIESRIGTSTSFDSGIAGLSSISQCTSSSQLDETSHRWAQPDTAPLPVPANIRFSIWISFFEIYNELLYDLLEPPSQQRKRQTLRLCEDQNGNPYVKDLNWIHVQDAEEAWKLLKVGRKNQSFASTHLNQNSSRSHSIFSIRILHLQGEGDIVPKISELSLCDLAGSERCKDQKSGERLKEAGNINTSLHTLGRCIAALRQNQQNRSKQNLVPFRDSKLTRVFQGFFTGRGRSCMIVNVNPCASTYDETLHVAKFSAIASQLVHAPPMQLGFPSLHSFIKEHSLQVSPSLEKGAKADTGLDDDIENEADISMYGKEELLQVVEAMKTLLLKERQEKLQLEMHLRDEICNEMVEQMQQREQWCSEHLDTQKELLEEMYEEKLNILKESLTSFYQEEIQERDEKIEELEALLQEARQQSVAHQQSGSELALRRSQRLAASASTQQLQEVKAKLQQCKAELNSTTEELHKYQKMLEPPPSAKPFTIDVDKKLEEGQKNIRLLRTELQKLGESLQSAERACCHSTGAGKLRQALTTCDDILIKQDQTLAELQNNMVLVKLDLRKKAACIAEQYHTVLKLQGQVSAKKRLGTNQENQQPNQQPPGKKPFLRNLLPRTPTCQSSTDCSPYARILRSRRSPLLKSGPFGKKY

[3] = molecular target: T2, Kinesin-like protein KIF20A (Homo sapiens); assay: Inhibition of MT-stimulated MKLP2 ATPase activity
[4] = Turbidimetric solubility of the compound at pH 2; type: physicochemical; conditions: buffer
[5] = Turbidimetric solubility of the compound at pH 6; type: physicochemical; conditions: buffer
[6] = Antitumor activity against human LXFS 538 cells xenografted in nu/nu nude Charles river mouse assessed as tumor volume doubling time at 20 mg/kg on days 0, 2 and 4 and 15 mg/kg on days 17, 19, 24 measured after 28 days (reference value: 8.8 days); type: functional

SMILES: Cc1cccc(C(CCC(N)C(=O)O)(c2ccccc2)c2ccccc2)c1 (racemic)
- inhibition [1]: inactive
- inhibition [2]: inactive
- inhibition [3]: inactive
- solubility kinetic [4]: > 100 µM
- solubility kinetic [5]: > 100 µM
- Time [6]: 28.7 days
